Measured values published in the supplement of paper PMC10307832.

Assays:
Test in all cases: relative viability (nuclei count vs DMSO), 5 days (fraction); higher = more cells survive
AGI-6780 + Tozasertib = compound: O=C(Nc1cccc(C(F)(F)F)c1)Nc1cc(S(=O)(=O)NC2CC2)ccc1-c1ccsc1 [AGI-6780] + Cc1cc(Nc2cc(N3CCN(C)CC3)nc(Sc3ccc(NC(=O)C4CC4)cc3)n2)n[nH]1 [Tozasertib] (partner 0.1 µM)
Procedure, shortened: (§1)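 The day after seeding in 1536-well plates, lung cancer cell lines were treated by pin tool with a single drug, or with a fixed anchor-drug dose together with five library-drug doses (not always all listed) in √10 steps. After 5 days, a combined fix-and-stain solution (final 0.05% Triton X-100, 1% formaldehyde, 1 ug/ml Hoechst) was added. Nuclei counted on 4× images gave relative viability as treated counts over vehicle counts, reported as the median of duplicate plates.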

AGI-6780 + Bortezomib = compound: O=C(Nc1cccc(C(F)(F)F)c1)Nc1cc(S(=O)(=O)NC2CC2)ccc1-c1ccsc1 [AGI-6780] + CC(C)C[C@H](NC(=O)[C@H](Cc1ccccc1)NC(=O)c1cnccn1)B(O)O [Bortezomib] (partner 0.002 µM)
Procedure, shortened: as §1

AGI-6780 + Decitabine = compound: O=C(Nc1cccc(C(F)(F)F)c1)Nc1cc(S(=O)(=O)NC2CC2)ccc1-c1ccsc1 [AGI-6780] + Nc1ncn([C@H]2C[C@H](O)[C@@H](CO)O2)c(=O)n1 [Decitabine] (partner 2 µM)
Procedure, shortened: as §1

AGI-6780 + AZD7762 = compound: O=C(Nc1cccc(C(F)(F)F)c1)Nc1cc(S(=O)(=O)NC2CC2)ccc1-c1ccsc1 [AGI-6780] + NC(=O)Nc1cc(-c2cccc(F)c2)sc1C(=O)N[C@H]1CCCNC1 [AZD7762] (partner 0.2 µM)
Procedure, shortened: as §1

| Cell Line | relative viability (AGI-6780 + Tozasertib; first compound 0.08 µM) | relative viability (AGI-6780 + Tozasertib; first compound 0.253 µM) | relative viability (AGI-6780 + Tozasertib; first compound 0.8 µM) | relative viability (AGI-6780 + Tozasertib; first compound 2.53 µM) | relative viability (AGI-6780 + Tozasertib; first compound 8 µM) | relative viability (AGI-6780 + Bortezomib; first compound 0.08 µM) | relative viability (AGI-6780 + Bortezomib; first compound 0.253 µM) | relative viability (AGI-6780 + Bortezomib; first compound 0.8 µM) | relative viability (AGI-6780 + Bortezomib; first compound 2.53 µM) | relative viability (AGI-6780 + Bortezomib; first compound 8 µM) | relative viability (AGI-6780 + Decitabine; first compound 0.08 µM) | relative viability (AGI-6780 + Decitabine; first compound 0.253 µM) | relative viability (AGI-6780 + Decitabine; first compound 0.8 µM) | relative viability (AGI-6780 + Decitabine; first compound 2.53 µM) | relative viability (AGI-6780 + Decitabine; first compound 8 µM) | relative viability (AGI-6780 + AZD7762; first compound 0.08 µM) | relative viability (AGI-6780 + AZD7762; first compound 0.253 µM) | relative viability (AGI-6780 + AZD7762; first compound 0.8 µM) | relative viability (AGI-6780 + AZD7762; first compound 2.53 µM) | relative viability (AGI-6780 + AZD7762; first compound 8 µM) |
| --- | --- | --- | --- | --- | --- | --- | --- | --- | --- | --- | --- | --- | --- | --- | --- | --- | --- | --- | --- | --- |
| NCI-H1650 | 0.367 | 0.432 | 0.442 | 0.381 | 0.293 | 0.181 | 0.196 | 0.216 | 0.206 | 0.183 | 0.435 | 0.485 | 0.381 | 0.305 | 0.387 |  |  |  |  |  |
| NCI-H1395 | 0.778 | 0.774 | 0.893 | 0.666 | 0.674 |  |  |  |  |  | 0.738 | 0.789 | 0.747 | 0.676 | 0.742 | 0.366 | 0.4 | 0.412 | 0.428 | 0.387 |
| NCI-H2170 | 0.687 | 0.752 | 0.665 | 0.546 | 0.814 |  |  |  |  |  | 0.469 | 0.495 | 0.477 |  | 0.459 | 0.803 | 0.904 | 0.987 |  | 0.827 |
| NCI-H522 | 0.485 | 0.5 | 0.606 | 0.534 | 0.53 |  |  |  |  |  | 0.612 | 0.583 | 0.722 |  | 0.588 | 0.821 | 0.907 | 0.848 |  | 0.78 |
| A549 |  |  |  |  |  |  |  |  |  |  | 0.329 | 0.211 | 0.275 | 0.292 | 0.322 |  |  |  |  |  |
| SW 1573 | 0.175 | 0.261 | 0.254 |  | 0.139 | 1.01 | 1.1 | 0.915 | 0.69 | 0.879 | 0.6 | 0.449 | 0.65 | 0.417 | 0.493 |  |  |  |  |  |
| NCI-H358 | 0.11 | 0.108 | 0.112 | 0.105 | 0.11 |  |  |  |  |  | 0.219 | 0.242 | 0.208 | 0.184 | 0.194 | 0.678 | 0.504 | 0.648 | 0.501 | 0.475 |
| NCI-H1299 |  |  |  |  |  | 1.06 | 1.03 | 0.944 | 1.02 | 1.03 |  |  |  |  |  |  |  |  |  |  |
| COR-L 105 | 0.402 | 0.357 | 0.388 | 0.336 | 0.441 | 0.886 | 0.896 | 0.993 | 0.766 | 0.813 | 0.602 | 0.89 | 0.649 | 0.655 | 0.713 |  |  |  |  |  |
| Calu-6 |  |  |  |  |  | 1.12 | 0.976 | 1.02 | 1.12 | 0.972 |  |  |  |  |  |  |  |  |  |  |
| NCI-H1792 |  |  |  |  |  | 0.834 | 0.917 | 1.01 | 0.867 | 0.862 | 0.665 | 0.437 | 0.536 |  | 0.49 | 1.05 | 0.596 | 0.769 |  | 0.752 |
| NCI-H1563 |  |  |  |  |  | 1 | 0.918 | 0.843 | 0.75 | 0.824 |  |  |  |  |  |  |  |  |  |  |
| SK-LU-1 | 0.309 | 0.318 |  | 0.279 | 0.327 | 1.25 | 1.45 | 0.965 | 1.12 | 1.4 | 0.73 | 0.63 | 0.567 | 0.583 | 0.572 |  |  |  |  |  |
